# Assay results reported in paper PMC6484020, “Discovery of selective activators of PRC2 mutant EED-I363M” (Scientific Reports, 2019).
# Entries after “also recorded” stand apart in the source; their conditions may differ. Where a SMILES comes first, the peptide text is derived from it. [ ]: non-standard residue; d: D form. Lys(Me3) = C[N+](C)(C)CCCC[C@H](N)C(=O)O
# How the values were obtained:
# [1] = molecular target: wildtype EED; settings: cited from earlier work
# [2] = molecular target: T1, PRC2-WT (EED/EZH2/SUZ12) (Homo sapiens, UniProt O75530+Q15910); assay: Methyltransferase scintillation proximity assay, H3 (21-44) peptide substrate; type: biochemical; settings: for effect on catalytic activity of PRC2-WT: H3 peptide substrate, compound up to 100 µM, normalized to activity without compound; for kcat, H3(21–44), PRC2-WT: in the presence of 20 µM compound, peptide substrate, mean ± SD, n = 3
# T1 construct: the full lengths of two components of the PRC2 complex, EED(1–441) and EZH2(1–751); EED(1–441) and EZH2(1–751) were cloned into pFastBac-Dual; made in house; host or cells: Sf9 insect cells (baculovirus co-infection)
# T1 sequence (O75530 whole entry): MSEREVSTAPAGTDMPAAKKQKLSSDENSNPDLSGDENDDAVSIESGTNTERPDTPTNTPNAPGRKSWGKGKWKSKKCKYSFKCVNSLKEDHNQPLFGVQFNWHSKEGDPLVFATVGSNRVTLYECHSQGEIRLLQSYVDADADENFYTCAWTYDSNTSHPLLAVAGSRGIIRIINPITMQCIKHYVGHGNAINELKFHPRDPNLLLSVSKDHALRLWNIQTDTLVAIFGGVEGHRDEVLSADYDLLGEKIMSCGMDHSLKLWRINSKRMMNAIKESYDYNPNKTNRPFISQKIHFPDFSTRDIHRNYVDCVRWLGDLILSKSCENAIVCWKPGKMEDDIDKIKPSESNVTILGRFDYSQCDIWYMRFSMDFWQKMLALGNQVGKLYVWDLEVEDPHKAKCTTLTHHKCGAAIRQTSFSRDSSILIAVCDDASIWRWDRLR
# T1 sequence (Q15910 1-751 isoform Q15910-2): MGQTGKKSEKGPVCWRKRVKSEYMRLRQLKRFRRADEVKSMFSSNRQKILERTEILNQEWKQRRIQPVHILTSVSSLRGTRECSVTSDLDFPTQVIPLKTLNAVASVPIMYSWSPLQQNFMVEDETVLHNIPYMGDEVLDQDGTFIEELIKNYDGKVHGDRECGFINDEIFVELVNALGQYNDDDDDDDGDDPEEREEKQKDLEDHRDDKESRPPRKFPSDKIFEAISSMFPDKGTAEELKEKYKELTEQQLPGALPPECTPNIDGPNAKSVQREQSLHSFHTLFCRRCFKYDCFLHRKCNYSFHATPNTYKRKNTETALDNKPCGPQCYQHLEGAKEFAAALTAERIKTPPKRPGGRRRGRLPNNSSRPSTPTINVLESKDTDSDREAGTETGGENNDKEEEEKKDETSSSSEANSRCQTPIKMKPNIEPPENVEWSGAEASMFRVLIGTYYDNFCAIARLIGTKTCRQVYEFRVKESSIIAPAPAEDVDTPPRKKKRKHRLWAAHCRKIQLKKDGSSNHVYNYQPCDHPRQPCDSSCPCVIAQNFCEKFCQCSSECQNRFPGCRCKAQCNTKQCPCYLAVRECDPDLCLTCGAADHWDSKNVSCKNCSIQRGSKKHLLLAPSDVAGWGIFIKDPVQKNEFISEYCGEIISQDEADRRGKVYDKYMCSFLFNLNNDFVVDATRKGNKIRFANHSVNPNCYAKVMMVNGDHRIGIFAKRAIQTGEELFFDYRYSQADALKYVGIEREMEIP
# T1 sequence (Q15022 whole entry partner): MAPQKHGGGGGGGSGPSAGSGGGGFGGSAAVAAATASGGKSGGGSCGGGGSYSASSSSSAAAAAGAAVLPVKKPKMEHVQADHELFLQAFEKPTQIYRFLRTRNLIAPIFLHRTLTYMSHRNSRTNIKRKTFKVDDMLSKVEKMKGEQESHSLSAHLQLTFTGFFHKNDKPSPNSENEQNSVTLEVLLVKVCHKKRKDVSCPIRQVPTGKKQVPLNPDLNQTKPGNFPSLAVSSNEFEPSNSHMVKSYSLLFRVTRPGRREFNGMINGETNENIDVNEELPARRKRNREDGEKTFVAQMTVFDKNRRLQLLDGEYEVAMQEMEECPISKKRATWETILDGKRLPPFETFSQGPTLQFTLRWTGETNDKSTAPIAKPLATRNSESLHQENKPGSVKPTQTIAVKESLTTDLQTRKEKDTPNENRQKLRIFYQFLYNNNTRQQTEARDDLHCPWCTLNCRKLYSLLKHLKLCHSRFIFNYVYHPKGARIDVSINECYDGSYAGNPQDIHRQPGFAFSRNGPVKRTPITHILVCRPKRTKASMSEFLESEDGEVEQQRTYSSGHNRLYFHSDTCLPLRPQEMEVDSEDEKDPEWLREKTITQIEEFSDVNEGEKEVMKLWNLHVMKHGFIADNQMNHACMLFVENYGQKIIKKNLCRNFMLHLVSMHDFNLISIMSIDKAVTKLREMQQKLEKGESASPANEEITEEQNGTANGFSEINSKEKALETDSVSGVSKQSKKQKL
# Protocol: (§1) Methyltransferase activity assay for WT PRC2 (EED/EZH2/SUZ12) or mutant PRC2-EED-I363M (EED/EZH2/SUZ12) was performed by monitoring the incorporation of tritium-labeled methyl group to lysine 27 of H3 (21–44) peptide using Scintillation Proximity Assay (SPA) or to human nucleosome using a filter-based assay. The enzymatic reactions were performed at 23 °C with 1 hour incubation of 10 µl reaction mixture in 20 mM Tris-HCl, pH 8, 5 mM DTT, and 0.01% Triton X-100 containing 2 µM of ^3H-SAM (Cat.# NET155V250UC; Perkin Elmer; www.perkinelmer.com), 1 µM of biotinylated H3 (21–44), 20 nM PRC2-WT or PRC2-mutant. To stop the reactions, 10 µL of 7.5 M Guanidine hydrochloride was added, followed by 200 µl of buffer (20 mM Tris, pH 8.0), mixed and transferred to a 96-well Streptavidin coated Flash-plate (Cat. # SMP410A001PK, PerkinElmer, http://www.perkinelmer.ca). After mixing, the mixtures in Flash-plate were incubated for 2 hours and the CPM counts were measured using Topcount plate reader (Perkin Elmer, www.perkinelmer.com).
# (§2) The CPM counts in the absence of compound for each dataset were defined as 100% activity. In the absence of the enzyme, the CPM counts in each data set were defined as background (0%). All enzymatic reactions were performed in triplicate and the data were analyzed by GraphPad Prism 7 software.
# (§3) Supplementary Figure S5. Testing the effect of 9 compounds on activity of WT- and EED-I363M mutant PRC2 complexes. Activities of WT- and mutant-PRC2 in the presence of each compound are normalized to activity of each protein complex in the absence of compound as 100%.
# Experiments were performed using 20 nM of each WT or mutant PRC2 trimeric (EED/EZH2/SUZ12) complexes, 2 µM 3H-SAM, 1 µM biotin-H3 (21-44), and up to 100 µM of compounds, 20 mM Tris-HCl pH 8.0, 5 mM DTT and 0.01% Triton X-100. […]
# (§4) Supplementary Figure S7. Determination of kcat values for WT- and EED- I363M mutant trimeric PRC2 complexes in the presence of activators. The kcat values were determined using (A) H3 (21-44) in the presence of 20 µM of each compound or (B) human nucleosome as a substrate in the presence of 200 µM of each compound. Experiments were […]
# (§5) performed in triplicate under the following assay conditions:
# (§6) (A) Peptide as substrate: 20 nM wildtype or EED-I363M mutant PRC2 (EED/EZH2/SUZ12), 2 µM biotinylated-H3 (21-44) peptide, various concentrations of 3H-SAM (up to 5 µM). […]
# (§7) Reactions with both substrates were incubated for 30 min at 23°C in 20 mM Tris-HCl pH 8.0, 5
# [3] = molecular target: T2, PRC2-EED-I363M (EED/EZH2/SUZ12) (Homo sapiens, UniProt O75530+Q15910, I363M); assay: as above; type: biochemical; settings: for effect on catalytic activity of PRC2-EED-I363M: H3 peptide substrate, normalized to activity without compound; for effect on catalytic activity of PRC2-EED-I363M / EC50: compound up to 100 µM; for EC50: 20 nM enzyme, 5 µM 3H-SAM, 2 µM biotin-H3 (21-44), 30 min, 23 °C, read-out: EC50 for activation of PRC2-EED-I363M; for increase of PRC2-EED-I363M kcat values: 20 µM compound, peptide as substrate; for kcat, H3(21–44), PRC2-EED-I363M: in the presence of 20 µM compound, peptide substrate, mean ± SD, n = 3
# T2 construct: the full lengths of two components of the PRC2 complex, EED(1–441) and EZH2(1–751); EED(1–441) and EZH2(1–751) were cloned into pFastBac-Dual; made in house; host or cells: Sf9 insect cells (baculovirus co-infection)
# T2 sequence (O75530 whole entry I363M): as the sequence (O75530 whole entry) above, with I363M counted along it
# T2 sequence (Q15910 1-751 isoform Q15910-2, stated change not applied): as the sequence (Q15910 1-751 isoform Q15910-2) above
# T2 sequence (Q15022 whole entry partner): as the sequence (Q15022 whole entry partner) above
# Protocol: as §1, §2, §3
# Experiments were performed using 20 nM of each WT or mutant PRC2 trimeric (EED/EZH2/SUZ12) complexes, 2 µM 3H-SAM, 1 µM biotin-H3 (21-44), and up to 100 µM of compounds, 20 mM Tris-HCl pH 8.0, 5 mM DTT and 0.01% Triton X-100.
# Supplementary Figure S6. EC50 determination for activators. The EC50 values were determined […]
# PRC2 mutant (EED/EZH2/SUZ12), 5 µM 3H-SAM, 2 µM biotin-H3 (21-44) and compound concentrations up to 100 µM. Reactions were incubated for 30 min at 23°C in 20 mM Tris-HCl pH 8.0, 5 mM DTT, 0.01% Triton X-100). Experiments were performed in triplicate. Data shown […]
# as §4, §5, §6, §7
# [4] = molecular target: T2, PRC2-EED-I363M (EED/EZH2/SUZ12); assay: Filter-based methyltransferase assay, human nucleosome substrate; type: biochemical; settings: for increase of PRC2-EED-I363M kcat values: human nucleosomes as substrate; for kcat, Human nucleosome, PRC2-EED-I363M: in the presence of 200 µM compound, nucleosome substrate, mean ± SD, n = 3
# Protocol: (§8) Figure 3 Effect of compound 1, 2 and 4 on activity of PRC2-WT and PRC2-EED-I363M. Effect of the selected compounds on activity of PRC2-WT and PRC2-EED-I363M mutant were assessed using human nucleosome as a substrate. Experiments were performed in triplicate using 200 nM of enzyme, 2 µM 3H-SAM and 5 µM human nucleosome and 200 µM compounds incubated for 30 min at 23 °C in 20 mM Tris-HCl pH 8.0, 5 mM DTT, 0.01% Triton X-100.
# (§9) A filter-based assay was used for human nucleosome as a substrate. The reactions were carried out at 23 °C with 0.5 hour incubation of 10 µl reaction mixture in 20 mM Tris-HCl, pH 8, 5 mM DTT, and 0.01% Triton X-100 containing 2 µM of ^3H-SAM (Cat.# NET155V250UC; Perkin Elmer; www.perkinelmer.com), 5 µM of human nucleosome, 200 nM PRC2-WT or PRC2 mutant. To stop the reactions, 50 µl of 10% TCA was added, mixed and transferred to filter-plates (Millipore; Cat.# MSFBN6B10; www.millipore.com). Plates were centrifuged at 2000 rpm (Allegra X-15R - Beckman Coulter, Inc.) for 2 min followed by two additional 10% TCA wash and one ethanol wash (180 µl) followed by centrifugation. Plates were dried and 100 µl MicroO (MicroScint-O; Cat.# 6013611, Perkin Elmer; www.perkinelmer.com) was added to each well, centrifuged and removed. 70 µl of MicroO was added again and CPM was measured using Topcount plate reader.
# as §2, §4
# (§10) performed in triplicate under the following assay conditions: […]
# (§11) (B) Human nucleosome as a substrate: 200 nM wildtype or EED-I363M mutant trimeric PRC2 (EED/EZH2/SUZ12), various concentrations of 3H-SAM (up to 5 µM) and 5 µM human […]
# as §7
# [5] = molecular target: T1, PRC2-WT (EED/EZH2/SUZ12); assay: as above; type: biochemical; settings: for kcat, Human nucleosome, PRC2-WT: in the presence of 200 µM compound, nucleosome substrate, mean ± SD, n = 3
# Protocol: as §8, §9, §2, §4, §10, §11, §7
SMILES,Kd [1] [nM],effect on catalytic activity of PRC2-WT [2],effect on catalytic activity of PRC2-EED-I363M [3],increase of PRC2-EED-I363M kcat values [4],"kcat, Human nucleosome, PRC2-EED-I363M [4] [h⁻¹]","kcat, Human nucleosome, PRC2-WT [5] [h⁻¹]","kcat, H3(21–44), PRC2-WT [2] [h⁻¹]",EC50 [3] [nM],increase of PRC2-EED-I363M kcat values [3],"kcat, H3(21–44), PRC2-EED-I363M [3] [h⁻¹]",effect on PRC2-WT catalytic activity ([5]; human nucleosome as substrate)
"CC(C)C[C@H](NC(=O)[C@H](Cc1ccccc1)NC(=O)[C@H](CCCCN(C)C(C)C)NC(=O)[C@@H]1C[C@@H]2CCCC[C@@H]2N1)C(N)=O [UNC5114, reference compound]",700 to 1100,antagonized,minimal effects,–,–,–,–,–,–,–,–
CC(C)C[C@H](NC(=O)[C@H](Cc1ccccc1)NC(=O)[C@H](CCCC[N+](C)(C)C)NC(=O)[C@H](CCCNC(=N)N)NC(=O)[C@@H]1CCCN1)C(N)=O [compound 1] (H-PR[Lys(Me3)]FL-NH2),–,minimal effects,significant increase,about 2 fold,1.3 ± 0.01,1.7 ± 0.05,25 ± 0.5,2300 ± 400,more than 2 fold,20 ± 1,–
CC(C)C[C@H](NC(=O)[C@H](Cc1ccccc1)NC(=O)[C@H](CCCC[N+](C)(C)C)NC(=O)[C@H](CCCCN)NC(=O)[C@@H]1CCCN1)C(N)=O [compound 2] (H-PK[Lys(Me3)]FL-NH2),–,minimal effects,significant increase,about 2 fold,1.5 ± 0.02,1.6 ± 0.04,24 ± 0.5,2400 ± 400,more than 2 fold,21 ± 1,weak inhibitor
CC(C)CC(NC(=O)C(Cc1ccccc1)NC(=O)C(CCCC[N+](C)(C)C)NC(=O)C1CC2CCCCC2N1CCCCN)C(N)=O (stereo not drawn) [compound 3],–,highest inhibition; also recorded: dose-dependent inhibitory potency,does not show any activator effect,–,–,–,–,–,–,–,–
